The text below walks through data of patent US12030867B2, “Hsp90β selective inhibitors” (University of Notre Dame du Lac, priority 2018, dated 2024).

Molecules are shown by their SMILES. Like-named read-outs stand apart in the source and are kept apart here.

For assay [1], the target named is T1, Hsp90β (Homo sapiens (Human), UniProt P08238). Put plainly: fluorescence polarization (FP) assay, competitive displacement of FITC labeled Geldanamycin. Type of assay: binding. As to the method: (§1) Once prepared, the compounds were evaluated for their binding affinities against the cytosolic isoforms, Hsp90α and Hsp90β by measuring their ability to competitively displace FITC labeled Geldanamycin (GDA) in a fluorescence polarization assay (apparent Kd's listed in Table 1). […] The alkyne (4k) was investigated to determine whether a linear substituent could project into the subpocket and affect selectivity.
For orientation: In fluorescence polarisation assays a small probe gives low polarisation when free and higher when bound to something large.

The next assay has as its target Hsp90α (Homo sapiens (Human), UniProt P07900). The description is as above. The class given is binding. As to the method:
as §1

Assay [2] concerns the target T1, Hsp90β. The note with it: previously reported inhibitors; cited from earlier work.
Where [3] appears, read: apparent Kd, FP assay, read-out: Hsp90β Kd.
[4] abbreviates: apparent Kd, FP assay, read-out: Hsp90α Kd.

T1 sequence (P08238 whole entry, canonical isoform): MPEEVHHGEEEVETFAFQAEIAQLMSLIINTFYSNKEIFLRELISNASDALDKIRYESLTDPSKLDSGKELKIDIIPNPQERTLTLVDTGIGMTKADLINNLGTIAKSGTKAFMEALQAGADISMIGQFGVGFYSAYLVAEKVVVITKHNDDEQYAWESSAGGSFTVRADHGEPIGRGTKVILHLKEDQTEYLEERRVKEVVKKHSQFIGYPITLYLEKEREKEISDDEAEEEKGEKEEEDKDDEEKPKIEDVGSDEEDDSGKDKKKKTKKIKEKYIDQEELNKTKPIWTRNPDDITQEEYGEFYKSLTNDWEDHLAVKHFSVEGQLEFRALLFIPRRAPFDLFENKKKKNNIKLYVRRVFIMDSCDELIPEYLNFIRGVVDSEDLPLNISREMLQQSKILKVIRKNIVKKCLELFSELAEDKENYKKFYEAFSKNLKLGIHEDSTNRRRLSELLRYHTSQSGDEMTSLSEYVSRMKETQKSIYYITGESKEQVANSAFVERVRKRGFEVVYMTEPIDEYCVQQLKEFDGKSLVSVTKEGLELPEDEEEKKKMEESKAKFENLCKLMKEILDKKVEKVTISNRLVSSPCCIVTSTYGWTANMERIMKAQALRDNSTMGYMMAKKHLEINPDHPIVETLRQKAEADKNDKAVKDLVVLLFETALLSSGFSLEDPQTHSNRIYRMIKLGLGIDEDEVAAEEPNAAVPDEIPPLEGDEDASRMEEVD

For the compound `COCc1cc2cc(-n3nc(C)c4c3CC(C)(C)CC4=O)cc(N[C@H]3CC[C@H](O)CC3)c2c(=O)[nH]1` [Compound 4i, 8-(((1r,4r)-4-hydroxycyclohexyl)amino)-3-(methoxymethyl)-6-(3,6,6-trimethyl-4-oxo-4,5,6,7-tetrahydro-1H-indazol-1-yl)isoquinolin-1(2H)-one], the “selectivity for Hsp90β over Hsp90α (in words)” value (“selectivity … (in words)” for short) at Hsp90β [1] (FP assay) is “loss of selectivity”. The Kd at Hsp90β [1] (setting [3]) was found to be 159 ± 3 nM; at Hsp90α (setting [4]), 306 ± 23 nM.

For `CC1(C)CC(=O)c2c(C(F)(F)F)nn(-c3ccc(C(N)=O)c(N[C@H]4CC[C@H](O)CC4)c3)c2C1` [SNX 2112], at Hsp90β [2], the “Hsp90α/Hsp90β isoform profile (in words)” value is “equipotent affinity”.

`CCCCc1cc2cc(-n3nc(C)c4c3CC(C)(C)CC4=O)cc(N[C@H]3CC[C@H](O)CC3)c2c(=O)[nH]1` [Compound 4e, 3-butyl-8-(((1r,4r)-4-hydroxycyclohexyl)amino)-6-(3,6,6-trimethyl-4-oxo-4,5,6,7-tetrahydro-1H-indazol-1-yl)isoquinolin-1(2H)-one]: the Kd was 186 nM on Hsp90β [1], 156 ± 18 nM on Hsp90β [1] (setting [3]) and greater than 50000 nM on Hsp90α (setting [4]). The “selectivity for Hsp90β over Hsp90α” value on Hsp90β [1] is listed as greater than 300 fold. For the same compound, the “affinity for Hsp90β (in words)” value on Hsp90β [1] (FP assay) was “did not bind”. For the same compound, at Hsp90α (FP assay), the “binding to Hsp90α (in words)” value is “did not bind”.

Turning to `CCCc1cc2cc(-n3nc(C)c4c3CC(C)(C)CC4=O)cc(NC3CCN(C)CC3)c2c(=O)[nH]1` [Compound 5f, 8-((1-methylpiperidin-4-yl)amino)-3-propyl-6-(3,6,6-trimethyl-4-oxo-4,5,6,7-tetrahydro-1Hindazol-1-yl)isoquinolin-1(2H)-one], the Kd amounted to 513 ± 67 nM on Hsp90β [1] (setting [3]) and 17100 ± 660 nM on Hsp90α (setting [4]).

On to `CCCc1cc2cc(-n3nc(C)c4c3CC(C)(C)CC4=O)cc(N(C)CCN(CC)CC)c2c(=O)[nH]1` [Compound 5g, 8-((2-(diethylamino)ethyl)(methyl)amino)-3-propyl-6-(3,6,6-trimethyl-4-oxo-4,5,6,7-tetrahydro-1H-indazol-1-yl)isoquinolin-1(2H)-one], for which the results for the Kd on Hsp90β [1] (setting [3]) and at Hsp90α (setting [4]) were 4460 ± 188 nM and greater than 50000 nM, respectively.

With `C#Cc1cc2cc(-n3nc(C)c4c3CC(C)(C)CC4=O)cc(N[C@H]3CC[C@H](O)CC3)c2c(=O)[nH]1` [Compound 4k, 3-ethynyl-8-(((1r,4r)-4-hydroxycyclohexyl)amino)-6-(3,6,6-trimethyl-4-oxo-4,5,6,7-tetrahydro-1H-indazol-1-yl)isoquinolin-1(2H)-one], on Hsp90β [1] (FP assay), the “selectivity … (in words)” value was “without discrimination”. Moreover, the figures for the Kd at Hsp90β [1] (setting [3]) and at Hsp90α (setting [4]) were 337 ± 15 nM and 381 ± 3 nM, respectively.

Turning to `CCc1cc2cc(-n3nc(C)c4c3CC(C)(C)CC4=O)cc(N[C@H]3CC[C@H](O)CC3)c2c(=O)[nH]1` [Compound 4b, 3-ethyl-8-(((1r,4r)-4-hydroxycyclohexyl)amino)-6-(3,6,6-trimethyl-4-oxo-4,5,6,7-tetrahydro-1H-indazol-1-yl)isoquinolin-1(2H)-one], the Kd stood at 68 ± 8 nM at Hsp90β [1] (setting [3]) and 180 ± 36 nM on Hsp90α (setting [4]).

As for `CCCc1cc2cc(-n3nc(C)c4c3CC(C)(C)CC4=O)cc(N3CCN(C(=O)OC(C)(C)C)CC3)c2c(=O)[nH]1` [Compound 5e, tert-butyl 4-(1-oxo-3-propyl-6-(3,6,6-trimethyl-4-oxo-4,5,6,7-tetrahydro-1H-indazol-1-yl)-1,2-dihydroisoquinolin-8-yl)piperazine-1-carboxylate], the Kd on Hsp90β [1] was 463 ± 31 nM; on Hsp90α, greater than 50000 nM.

Regarding `Cc1nn(-c2cc(N[C@H]3CC[C@H](O)CC3)c3c(=O)[nH]c(CC(C)C)cc3c2)c2c1C(=O)CC(C)(C)C2` [Compound 4g, 8-(((1r,4r)-4-hydroxycyclohexyl)amino)-3-isobutyl-6-(3,6,6-trimethyl-4-oxo-4,5,6,7-tetrahydro-1H-indazol-1-yl)isoquinolin-1(2H)-one], at Hsp90β [1] (FP assay), the “affinity for Hsp90β (in words)” value was “decrease in affinity” and the “selectivity … (in words)” value is “maintained selectivity”. The Kd on Hsp90β [1] (setting [3]) was 264 ± 30 nM. At Hsp90α (setting [4]), the Kd was greater than 50000 nM.

`Cc1nn(-c2cc(N[C@H]3CC[C@H](O)CC3)c3c(=O)[nH]c(C(C)C)cc3c2)c2c1C(=O)CC(C)(C)C2` [Compound 4c, 8-(((1r,4r)-4-hydroxycyclohexyl)amino)-3-isopropyl-6-(3,6,6-trimethyl-4-oxo-4,5,6,7-tetrahydro-1H-indazol-1-yl)isoquinolin-1(2H)-one]: the Kd on Hsp90β [1] (setting [3]) came to 51 ± 8 nM; on Hsp90α (setting [4]), 173 ± 36 nM.

Consider `CCCc1cc2cc(-n3nc(C)c4c3CC(C)(C)CC4=O)cc(N3CCOCC3)c2c(=O)[nH]1` [Compound 5a, 8-morpholino-3-propyl-6-(3,6,6-trimethyl-4-oxo-4,5,6,7-tetrahydro-1H-indazol-1-yl)isoquinolin-1(2H)-one], for which the “selectivity … (in words)” value at Hsp90β [1] (FP assay) is “excellent selectivity”. For the same compound, the figures for the Kd at Hsp90β [1] (setting [3]), at Hsp90β [1] (read-out: Kd for Hsp90β) and at Hsp90α (setting [4]) were 121 ± 17 nM, roughly 121 nM and greater than 50000 nM, respectively.

With `Cc1cc2cc(-n3nc(C)c4c3CC(C)(C)CC4=O)cc(N[C@H]3CC[C@H](O)CC3)c2c(=O)[nH]1` [Compound 4a, 8-(((1r,4r)-4-hydroxycyclohexyl)amino)-3-methyl-6-(3,6,6-trimethyl-4-oxo-4,5,6,7-tetrahydro-1H-indazol-1-yl)isoquinolin-1(2H)-one], the “selectivity for Hsp90β over Hsp90α” value at Hsp90β [1] turned out to be 3 fold. The Kd was found to be 101 ± 3 nM at Hsp90β [1] (setting [3]) and 294 ± 23 nM on Hsp90α (setting [4]).

In the case of `CCCc1cc2cc(-n3nc(C)c4c3CC(C)(C)CC4=O)cc(N3CCNCC3)c2c(=O)[nH]1` [Compound 5d, 8-(piperazin-1-yl)-3-propyl-6-(3,6,6-trimethyl-4-oxo-4,5,6,7-tetrahydro-1H-indazol-1-yl)isoquinolin-1(2H)-one], the Kd at Hsp90β [1] (setting [3]) is 4470 ± 278 nM; on Hsp90α (setting [4]), greater than 50000 nM.

As for `Cc1nn(-c2cc(N[C@H]3CC[C@H](O)CC3)c3c(=O)[nH]c(C(C)(C)C)cc3c2)c2c1C(=O)CC(C)(C)C2` [Compound 4f, 3-(tert-butyl)-8-(((1r,4r)-4-hydroxycyclohexyl)amino)-6-(3,6,6-trimethyl-4-oxo-4,5,6,7-tetrahydro-1H-indazol-1-yl)isoquinolin-1(2H)-one], the Kd at Hsp90β [1] (setting [3]) and at Hsp90α (setting [4]) was greater than 50000 nM in each case.

As to `CCCc1cc2cc(-n3nc(C)c4c3CC(C)(C)CC4=O)cc(N3CCN(C)CC3)c2c(=O)[nH]1` [Compound 5c, 8-(4-methylpiperazin-1-yl)-3-propyl-6-(3,6,6-trimethyl-4-oxo-4,5,6,7-tetrahydro-1Hindazol-1-yl)isoquinolin-1(2H)-one], on Hsp90β [1] (FP assay), the “affinity for Hsp90β (in words)” value is given as “decrease in affinity”; the “selectivity … (in words)” value was “decrease in affinity and selectivity”. For the same compound, at Hsp90β [1] (setting [3]), the Kd worked out at 426 ± 53 nM. For the same compound, the Kd on Hsp90α (setting [4]) worked out at 8520 ± 240 nM.

Regarding `Cc1nn(-c2cc(N[C@H]3CC[C@H](O)CC3)c3c(=O)[nH]c(C4CC4)cc3c2)c2c1C(=O)CC(C)(C)C2` [Compound 4h, 3-cyclopropyl-8-(((1r,4r)-4-hydroxycyclohexyl)amino)-6-(3,6,6-trimethyl-4-oxo-4,5,6,7-tetrahydro-1H-indazol-1-yl)isoquinolin-1(2H)-one], the “affinity for Hsp90β (in words)” value on Hsp90β [1] (FP assay) is given as “loss of potency”. Also, the Kd stood at 946 ± 38 nM on Hsp90β [1] (setting [3]) and 1880 ± 280 nM on Hsp90α (setting [4]).

`CCCC1Cc2cc(-n3nc(C)c4c3CC(C)(C)CC4=O)cc(N3CCC(O)CC3)c2C(=O)N1` (centres unmarked) [Compound 6b, 8-(4-hydroxypiperidin-1-yl)-3-propyl-6-(3,6,6-trimethyl-4-oxo-4,5,6,7-tetrahydro-1Hindazol-1-yl)-3,4-dihydroisoquinolin-1(2H)-one]: at Hsp90β [1] (FP assay), the “affinity for Hsp90β (in words)” value was “lost both selectivity and affinity”; the “selectivity … (in words)” value was “lost both selectivity and affinity”.

`Cc1nn(-c2cc(N[C@H]3CC[C@H](O)CC3)c3c(=O)[nH]c(CO)cc3c2)c2c1C(=O)CC(C)(C)C2` [Compound 4j, 8-(((1r,4r)-4-hydroxycyclohexyl)amino)-3-(hydroxymethyl)-6-(3,6,6-trimethyl-4-oxo-4,5,6,7-tetrahydro-1H-indazol-1-yl)isoquinolin-1(2H)-one]: the “selectivity … (in words)” value at Hsp90β [1] (FP assay) is given as “loss of selectivity”. Moreover, the figures for the Kd at Hsp90β [1] (setting [3]) and at Hsp90α (setting [4]) were 233 ± 18 nM and 824 ± 104 nM, respectively.
